Assay results reported in patent US20220372162A1, “PCT/US2020/066088” (TeneoFour, Inc., priority 2019, published 2022).
“Also recorded” adds a separate entry of the source.

Columns and labels:
[1] = tested on: sirtuin activity in CD38 positive Ramos cells; test: Sirtuin activity assay (SIRT-GLO) in CD38 positive Ramos cells; format: cell-based; conditions: 24 h
Text: To quantify sirtuin activity, Promega's one-step SIRT-GLO™ assay was used. The reagent formulation contains an acetylated lysine attached to aminoluciferin, along with a peptide sequence derived from p53. Upon deacetylation of the lysine by a sirtuin, the deacetylated peptide becomes a substrate for the developer reagent present in the reaction mixture. This yields free aminoluciferin that reacts with luciferase to give a luminescent signal that is stable and quantifiable.
CD38 positive Ramos cells were treated with a bispecific, bivalent three chain binding compound as depicted in FIG. 11, Panel D, or isotype control, in a 96 well plate (2×10^5 cells/well). After 24 h, the plate was centrifuged at 500 g for 5 minutes, and the cells were washed with 1×PBS followed by centrifugation. The cell pellet was resuspended in 50 μL of M-PER Mammalian Protein extraction reagent on ice. The cells were transferred to 1.5 mL tubes and homogenized for 30 seconds. The lysate was centrifuged at 14,000 rpm for 5 minutes at 4° C. The supernatant was incubated with 1:30 of anti-SIRT1 antibody (Abcam #32441) for 4 h on a rotator at 4° C. Protein A slurry (25 μL per 50 μL of lysate) was added and further incubated for 2 h at room temperature Immunoprecipitation (IP) buffer (Pierce #28379) was added (500 μL per tube) followed by centrifugation at 2500 g for 2 minutes. The wash step with IP buffer was repeated and 50 μL of IgG elution buffer (Pierce #21004) was added. After 5 minutes of incubation at room temperature, the eluate was centrifuged at 2500 g for 2 minutes. The supernatant was immediately neutralized with 1 M Tris (pH 9), 10 μL per 100 μL eluate. The eluate was used in the SIRT GLO™ assay (Promega #G6450) at a 1:1 ratio with the SIRT GLO™ reagent, per the manufacturer's instructions.
CD38 positive Ramos cells were treated with a bispecific, bivalent three chain binding compound (depicted in FIG. 11, Panel D) in combination with nicotinamide mononucleotide (NMN) at a concentration of 400 nM, or isotype control, in a 96 well plate (2×10^5 cells/well). After 24 h, the plate was centrifuged at 500 g for 5 minutes, and the cells were washed with 1×PBS followed by centrifugation. The cell pellet was resuspended in 50 μL of M-PER Mammalian Protein extraction reagent on ice. The cells were transferred to 1.5 mL tubes and homogenized for 30 seconds. The lysate was centrifuged at 14,000 rpm for 5 minutes at 4° C. The supernatant was incubated with 1:30 of anti-SIRT1 antibody (Abcam #32441) for 4 h on a rotator at 4° C. Protein A slurry (25 μL per 50 μL of lysate) was added and further incubated for 2 h at room temperature Immunoprecipitation (IP) buffer (Pierce #28379) was added (500 μL per tube) followed by centrifugation at 2500 g for 2 minutes. […]

CD4 T cells = test: T-cell proliferation and IFNγ production in mixed lymphocyte reaction (MLR); format: cell-based
Protocol: Various binding compounds in accordance with embodiments of the invention were assessed for their ability to inhibit CD38 hydrolase activity without activating a mixed lymphocyte reaction (MLR). MLR occurs when MHC mismatched immune cells interact, triggering an immune response by T cell hyperproliferation and exacerbated cytokine release. […] The binding compounds were formulated at a concentration of 0.97 mg/mL in 20 mM Citrate, 100 mM NaCl, pH 6.2. Test substance was stored frozen at −80° C. until the day of use.
Analyses were performed to assess CD4 T cell proliferation and IFNγ production. The results are depicted in FIG. 20. […] The percentage of CD4 T cell proliferation is also shown in Panel C for a variety of other binding compounds.

Daudi cells [2] = test: Direct apoptosis / direct cytotoxicity of Daudi cells; format: cell-based
Protocol: (§1) Induction of direct apoptosis was assessed by Annexin-V and 7-AAD staining using flow cytometry. Annexin-V is commonly used to detect apoptotic cells by its ability to bind to phosphatidylserine, a marker of apoptosis when it is present on the outer leaflet of the plasma membrane. 7-AAD binds to double stranded DNA that is taken up by dying or dead cells with compromised membranes. The CD38 positive cell lines used in this study were Daudi and Ramos cells.
(§2) A quad gate was used to distinguish between early apoptotic (Annexin-V+, 7-AAD−), late apoptotic (Annexin-V+, 7-AAD+), and viable cells (Annexin-V−, 7-AAD−). Concentration of binding compound was plotted against percent viability in Graphpad Prism 8. The resulting plot was fitted to a non-linear regression to determine EC50.

Daudi cells [3] = test: NAD+ assay in Daudi cells; format: cell-based; conditions: presence of NMN compared to absence of NMN, FIG. 19
Protocol: (§3) Studies were performed to assess whether blocking the ecto-NMNase activity of CD38 with the subject binding compounds causes an increase in the NMN-mediated increase in NAD+ within the CD38 expressing B cell lines Ramos and Daudi. The assay is based on the enzymatic cycling reaction in which NAD+ is reduced to NADH. NAD+ reacts with a colorimetric probe that produces a colored product. The intensity of the color is proportional to the NAD+ and NADH within a sample. Oxidized form is selectively destroyed by heating in basic solution, while reduced form is not stable in acidic solution.
(§4) Daudi or Ramos cells (2×10^5) were treated with antibody at a 5 nM concentration for 14 h. NAD+ was measured using an NAD+/NADH cycling assay kit (Cell Biolabs #MET-5014). Briefly, cell lysates were prepared in extraction buffer by homogenization, centrifugation at 4° C. at 14,000 rpm for 5 minutes, and deproteination through a 10 kDa spin filter. […] After 3 h, color development was read at 450 nm.
(§5) Daudi or Ramos cells (2×10^5) were treated with antibody at a 5 nM concentration in the presence or absence of 400 nM NMN for 14 h. NAD+ was measured using the NAD+/NADH cycling assay kit (Cell Biolabs #MET-5014). […] After 3 h, color development was read at 450 nm.

Ramos cells [4] = test: NAD+ assay in Ramos cells; format: cell-based; conditions: presence of NMN compared to absence of NMN, FIG. 19
Protocol: as §3, §4, §5

[5] = tested on: CD38 negative cell lines (293-Freestyle, HL-60, K562, CHO); test: Off target cell binding by flow cytometry (Example 10); conditions: K562 and HL-60 cells, FIG. 23
Protocol: On target and off target cell binding of a bispecific, bivalent three chain binding compound as depicted in FIG. 11, Panel D, was assessed. The binding compound was formulated at a concentration of 0.97 mg/mL in 20 mM Citrate, 100 mM NaCl, pH 6.2. Test substance was stored frozen at −80° C. until the day of use. Binding to CD38 positive and CD38 negative cell lines was assessed using flow cytometry. The CD38 positive cell lines used were Daudi, Ramos, and a CHO cell line transfected to stably express CD38. The CD38 negative cell lines used were 293-Freestyle, HL-60, K562, and CHO.
The average MFI of unstained wells was set as the background signal. To calculate fold over background of each experimental sample, the experimental sample MFI was divided by the average background MFI.

Ramos cells [6] = test: Direct apoptosis of Ramos cells; format: cell-based; conditions: Annexin-V and 7-AAD staining, flow cytometry, FIG. 24
Protocol: as §1, §2

[7] = tested on: Xeno-GvHD in NOD scid gamma (NSG) mice; test: Xeno-GvHD model, human PBMCs in NSG mice; format: in vivo
Protocol: Xeno-GvHD was induced using 1.5 grays of radiation to facilitate colonization of human PBMCs in NOD scid gamma (NSG) mice. […] Survival was monitored until day 50. GvHD clinical score was determined mainly based on weight loss, posture, activity and fur texture. […] In contrast, the animals treated with PBMCs+PBS or PBMCs+mCD38 lost body weight quickly and were sacrificed before day 25 because of more than 20% weight loss. The survival, body weight, and clinical score data are shown in FIGS. 30, 31 and 32, respectively.

[8] = target: T1, human CD38 expressed on CHO cells (Homo sapiens, UniProt P28907); test: Cell-based CD38 hydrolase activity, UniAb mixtures, bivalent and tetravalent formats (FIGS. 7, 8, 12, 16); conditions: tetravalent UniAbs with human IgG4 Fc region, FIG. 16; read-out: IC50, inhibition of hydrolase activity of human CD38 expressed on CHO cells
T1 construct: expressed in transfected cells; host or cells: CHO cells stably expressing human CD38
Protocol: After incubation, ε-NAD^+ (BioLog Cat. No. N010) was added to a final concentration of 150 μM. Production of a fluorescent product was measured at 1 hour (ex 300 nm/em 410 nm) using a Spectramax i3x plate reader (Molecular Devices). Hydrolase enzyme inhibition was assessed by comparing signal from UniAb™-treated wells to the percent of total enzymatic activity observed when CD38 protein was treated with an isotype control antibody (max).

NC(=O)c1ccc[n+]([C@@H]2O[C@H](COP(=O)([O-])O)[C@@H](O)[C@H]2O)c1 [NMN, nicotinamide mononucleotide, reference compound]
sirtuin activity, luminescence (in words) ([1]; NMN 400 nM, FIG. 28): did not result in an increase in sirtuin activity

Daratumumab: antibody specific for human CD38, approved in 2015 for Multiple Myeloma
percentage of CD4 T cell proliferation in MLR (in words) (CD4 T cells; FIG. 20, Panel A): did result in an increase | IFNγ production in MLR (in words) (CD4 T cells; compared to IgG4 istp control, FIG. 20, Panel B): caused an increase

Isatuximab: antibody against CD38 in clinical trials for Multiple Myeloma; VH SEQ ID NO: 30, VL SEQ ID NO: 31 [reference compound]
direct cytotoxicity of Daudi cells (in words) (Daudi cells [2]; FIG. 10): potently kill Daudi cells | direct apoptosis of Daudi cells (in words) (Daudi cells [2]; in 24 hours, stated with the NAD+ study): causes direct apoptosis | intracellular NAD+ levels (in words) (Daudi cells [3]): not Daudi | intracellular NAD+ levels (in words) (Ramos cells [4]): subtle difference in NAD+ increase

TNB-738: bispecific, bivalent three chain anti-human CD38 molecule, FIG. 11 Panel D, comprising F11A and F12A VH sequences
off target cell binding (in words) [5]: does not bind | direct apoptosis of Daudi cells (in words) (Daudi cells [2]; Annexin-V and 7-AAD staining, flow cytometry, FIG. 24): did not cause direct apoptosis | direct apoptosis of Ramos cells (in words) (Ramos cells [6]): did not cause direct apoptosis | intracellular NAD+ levels (in words) (Daudi cells [3]): remarkably increased the NAD+ levels | intracellular NAD+ levels (in words) (Ramos cells [4]): remarkably increased the NAD+ levels | sirtuin activity, luminescence (in words) ([1]; NMN 5 nM, 50 nM or 500 nM, FIG. 29): further increased in a dose-dependent manner by the presence of increasing concentrations of NMN | sirtuin activity, luminescence (in words) ([1]; NMN 400 nM, FIG. 28): further increased by the presence of NMN | sirtuin activity, luminescence (in words) ([1]; no NMN, FIG. 26): dose-dependent increase in sirtuin activity | prevention of GvHD (in words) ([7]; clinical score based on weight loss, posture, activity and fur texture): prevention of GvHD; also recorded: able to successfully prevent GvHD | survival ([7]; day 50 after PBMC injection, treatments twice weekly until day 18): 100%

B1: CD38F12A_2GS_CD38F11A: tetravalent bispecific UniAb, FIG. 11 Panel B format, distal VH CD38F12A, GS linker, proximal VH CD38F11A, human IgG4 Fc region (antibody)
heavy: GVQLVESGGGLVQPGGSLRLSCTASGFTFSSSWMSWVRQAPGKGLEWVANIKQDGSEKDYVDSAKGRFTISRDNAKNSLYLQMNNLRAEDTAVYYCARDRRGPFFHIWGQGTLVTVSSGGGGSQVQLVESGGGVVQPGRSLRLSCAASGFTFSSYGMHWVRQAPGKEREWVAVISDDGSNKYYADSVKGRFTISRDNSKNTLYLQMNSLRVEDTAVYYCAKDRGTMRVVVYDTLDIWGQGTLVTVSS
modifications: left off: a dimerising Fc or GST
IC50 [8]: 4.5 nM
